Assay results taken from patent US20240124520A1, “N-ACYLATED HISTIDINE DIPEPTIDES AS ANTICANCER AGENTS” (THE BOARD OF TRUSTEES OF THE LELAND STANFORD JUNIOR …, priority 2019, published 2024).
Non-standard residues stand in square brackets, D forms with d. Residues, ends and D or L forms follow the SMILES beside them. *: point of attachment. Palmitoyl = CCCCCCCCCCCCCCCC(=O)*

How the values were obtained:
[1] = system: MDA-MB-231 triple-negative human breast cancer cells; test: Cell Titer Blue in vitro cell viability assay, MDA-MB-231; type: cell-based; settings: MDA-MB-231, 72 h, 3 days at 37° C.
Protocol: FIG. 1: Dose Response curve for MBC017 with MDA-MB-231 cells. Compound MBC017 was incubated with MDA-MB-231 triple-negative human breast cancer cells at the indicated concentrations for 3 days at 37° C. prior to Cell Titer Blue fluorescence-based cell viability assay. Normalized cell viability data, expressed as a percentage, are averaged from three biological replicates and standard error represented by error bars for each averaged data point (empty squares). The compound concentrations are represented on log scale on the x-axis in μM units. Data were analyzed using free software called DrFit, as described in Nature Scientific Reports, Article number: 14701, (2015). […] The data were not sufficient to calculate an accurate IC50 value.
A commercially available in vitro cell viability reagent (Cell Titer Blue) was employed to determine the anti-cancer effectiveness of several compounds (1-5) against multiple cancer and healthy tissue-derived cell lines. Cell lines are summarized in Table 2, as follows: All cell lines and information on each cell lines origins and characteristics were procured from ATCC (www.atcc.org). Common names and ATCC product IDs are shown in the first (leftmost) column. From the left, the second and third columns describe the organism and tissue from which each cell line was isolated. The fourth and fifth columns indicate the cell type and disease status (e.g. normal versus carcinoma) of each cell line. The sixth column provides a summary of what compounds were tested against each cell line using an in vitro cell viability assay. Peptide name IDs are shown in parenthesis for each compound, numbered 1 through 5.
The Cell Titer Blue reagent (available from Promega, Inc.) is a buffered solution containing resazurin, a compound that is converted to resorufin, a detectable fluorescent product, by metabolically active cells. The fluorescence intensity of resorufin product therefore serves as a proportional measure of the number of viable cells, permitting changes in cell viability within cancer or other cell lines to be monitored in response to the addition of cytotoxic or cytostatic agents. Various human breast tissue-derived cell lines are widely employed to study the effects of potential therapeutics against breast cancer in vitro. Human breast cancer cell lines may be subdivided into groups based upon hormone receptor status, i.e. estrogen, progesterone and human epidermal growth factor positive or negative. A healthy human breast tissue-derived cell line, hTERT-HME1 may be used to determine the effect of therapeutic agents on healthy human breast tissue in vitro. Additionally, a highly metastatic and aggressive murine (mouse) breast cancer cell line, 4T1, has been extensively used to monitor breast cancer metastasis from the mammary fat pads of mice to the lungs in order to systematically survey the anti-metastatic effectiveness of anti-cancer therapeutics in an in vivo animal model. Metastases to the lungs may be conveniently quantified by a well-established clonogenic assay. Other human tissue-derived model cell lines, representative of various cancers, other than breast cancer, may be utilized to assess the potential of anti-cancer compounds in vitro. These include, K-562 (chronic myelogenous leukemia), HEPG2 (hepatocellular carcinoma), OVCAR-3 (ovarian adenocarcinoma), SK—N—SH (neuroblastoma) and A549 (lung carcinoma). Several compounds were assayed in vitro using the Cell Titer Blue viability assay against an array of cancer cell lines of both human and murine origin plus one healthy human breast cell line (Table 1, FIGS. 1-16). A mouse 4T1 metastasis study was performed to determine the anti-metastatic potential of one compound, MBC0179 (FIG. 17).
Dimethyl sulfoxide (DMSO), Cremophor EL, methylene blue, 100× antibiotic/antimycotic solution, collagenase (Type IV), DNAse I and 6-thioguanine were available from Millipore-Sigma. […]

[2] = system: ZR-75-30 human breast cancer cells; test: Cell Titer Blue in vitro cell viability assay, ZR-75-30; type: cell-based; settings: 72 h, ZR-75-30 (DMEM), 3 days at 37° C.
Protocol: FIG. 10: Dose Response curve for MBC0179 with ZR-75-30 cells. Compound MBC0179 was incubated with ZR-75-30 human breast cancer cells at the indicated concentrations for 3 days at 37° C. prior to Cell Titer Blue fluorescence-based cell viability assay. Normalized cell viability data, expressed as a percentage, are averaged from three biological replicates and standard error represented by error bars for each averaged data point (empty squares). The compound concentrations are represented on log scale on the x-axis in μM units. Data were analyzed using free software called DrFit, as described in Nature Scientific Reports, Article number: 14701, (2015). […]
The Cell Titer Blue reagent (available from Promega, Inc.) is a buffered solution containing resazurin, a compound that is converted to resorufin, a detectable fluorescent product, by metabolically active cells. The fluorescence intensity of resorufin product therefore serves as a proportional measure of the number of viable cells, permitting changes in cell viability within cancer or other cell lines to be monitored in response to the addition of cytotoxic or cytostatic agents. […] Metastases to the lungs may be conveniently quantified by a well-established clonogenic assay. […]

[3] = system: 4T1 murine breast cancer cell line-derived mammary tumors, metastasis to the lungs; test: 4T1 mouse breast cancer lung metastasis study (clonogenic assay); type: in vivo; settings: Balb/c mice
Protocol: FIG. 17: 4T1 Mouse Breast Cancer Lung Metastasis Study with MBC0179. Compound MBC0179 (in 7% w/v Cremophore EL/10% v/v ethanol/[…] vehicle) or vehicle only was administered intravenously to three groups of six Balb/c mice (8 week old) carrying 4T1 murine breast cancer cell line-derived mammary tumors, one week post-implantation. After twice weekly dosing for four weeks with vehicle (blue bar), 10 mg/kg (red bar) or 15 mg/kg (green bar) MBC0179, the mice were humanely euthanized according to IACUC guidelines and lungs excised for 4T1 colonogenic assay in order to provide a measure of 4T1 metastasis to the lungs. The colony counts were plotted, averaged and standard error calculated (error bars). […] Additonally, the percentage reduction in lung-derived 4T1 colonies between the vehicle and 15 mg/kg MBC0179 treatment group was calculated based on the average colony counts for each group, normalizing to the vehicle group, indicated on chart.
The Cell Titer Blue reagent (available from Promega, Inc.) is a buffered solution containing resazurin, a compound that is converted to resorufin, a detectable fluorescent product, by metabolically active cells. […] Metastases to the lungs may be conveniently quantified by a well-established clonogenic assay. […]

CCCCCCCCCCCCCCCC(=O)N[C@H](Cc1c[nH]cn1)C(=O)N[C@@H](C(=O)OCC)C(C)C [Compound 5, N-[N-(1-oxohexadecyl)-D-histidyl]-D-valine ethyl ester] (Palmitoyl-[dH]-[dV]-OEt)
IC50 ([1]; MDA-MB-231 (DMEM)): 14.7 µM
IC50 ([1]; MDA-MB-231 (MEGM)): 8.88 µM
IC50 [2]: 9.7 µM
lung metastases (average 4T1 colony counts) ([3]; 10 mg/kg and 15 mg/kg intravenous twice weekly vs vehicle): dose-dependent reduction in lung metastases
percent reduction in lung metastases ([3]; 15 mg/kg intravenous twice weekly for four weeks vs vehicle, lung-derived 4T1 colonies, p=0.03, two-tailed t-test): 74.4%
